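Protocol summary: plate cells (96-well), add compound at 5 concentrations, incubate 48 h, interpolate endpoints linearly. GI50 marks 50% less growth.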 Activity calls are given as the source filed them. Rule as the data show it: active = GI50 up to about 1.1 µM and inactive = higher.
Assays:
Experiment in all cases: NCI tumour cell line growth inhibition, 48 h
ACHN = tested on: ACHN
SNB-19 = tested on: SNB-19
MCF7 = tested on: MCF7
NCI-H23 = tested on: NCI-H23
HT-29 = tested on: HT-29
PC-3 = tested on: PC-3
HCT-116 = tested on: HCT-116
HCT-15 = tested on: HCT-15
OVCAR-4 = tested on: OVCAR-4
OVCAR-3 = tested on: OVCAR-3
SN12C = tested on: SN12C
SK-OV-3 = tested on: SK-OV-3
EKVX = tested on: EKVX
UACC-62 = tested on: UACC-62
SF-539 = tested on: SF-539
CAKI-1 = tested on: CAKI-1
OVCAR-5 = tested on: OVCAR-5
A498 = tested on: A498
OVCAR-8 = tested on: OVCAR-8
RPMI-8226 = tested on: RPMI-8226

SMILES	GI50 (ACHN)	GI50 (SNB-19)	GI50 (MCF7)	GI50 (NCI-H23)	GI50 (HT-29)	GI50 (PC-3)	GI50 (HCT-116)	GI50 (HCT-15) [µM]	GI50 (OVCAR-4)	GI50 (OVCAR-3)	GI50 (SN12C)	GI50 (SK-OV-3)	GI50 (EKVX)	GI50 (UACC-62)	GI50 (SF-539)	GI50 (CAKI-1)	GI50 (OVCAR-5)	GI50 (A498)	GI50 (OVCAR-8)	GI50 (RPMI-8226)
CC(C)=CCC/C(C)=C/CCC(C(=O)COCc1ccccc1)P1(=O)OC(C)(C)CN1C(C)(C)C (stereo not drawn)	> 100 µM (inactive)	> 100 µM (inactive)	33.8 µM (inactive)	86.5 µM (inactive)	33.2 µM (inactive)	39.3 µM (inactive)	33.1 µM (inactive)	48.6	23.9 µM (inactive)	37.6 µM (inactive)	> 100 µM (inactive)	> 100 µM (inactive)	> 100 µM (inactive)	> 100 µM (inactive)	> 100 µM (inactive)	> 100 µM (inactive)	> 100 µM (inactive)	–	–	–
COc1ccc(C2SCC(=O)N2NC(=O)c2ccc(NC(C)=O)cc2)cc1 (stereo not drawn)	> 100 µM (inactive)	> 100 µM (inactive)	> 100 µM (inactive)	> 100 µM (inactive)	> 100 µM (inactive)	–	> 100 µM (inactive)	> 100	> 100 µM (inactive)	> 100 µM (inactive)	> 100 µM (inactive)	> 100 µM (inactive)	> 100 µM (inactive)	> 100 µM (inactive)	> 100 µM (inactive)	–	> 100 µM (inactive)	> 100 µM (inactive)	> 100 µM (inactive)	> 100 µM (inactive)
Nc1ncnc2c1N=C(c1ccccc1)CC(c1ccccc1)N2 (stereo not drawn)	> 100 µM (inactive)	> 100 µM (inactive)	> 100 µM (inactive)	> 100 µM (inactive)	> 100 µM (inactive)	> 100 µM (inactive)	> 100 µM (inactive)	> 100	> 100 µM (inactive)	> 100 µM (inactive)	> 100 µM (inactive)	> 100 µM (inactive)	> 100 µM (inactive)	> 100 µM (inactive)	> 100 µM (inactive)	> 100 µM (inactive)	> 100 µM (inactive)	–	> 100 µM (inactive)	> 100 µM (inactive)
O=[N+]([O-])c1ccc(S(=O)(=O)n2c3ccc(Br)cc3c3nc4ccccc4nc32)cc1	> 100 µM (inactive)	> 100 µM (inactive)	–	> 100 µM (inactive)	> 100 µM (inactive)	> 100 µM (inactive)	> 100 µM (inactive)	> 100	> 100 µM (inactive)	> 100 µM (inactive)	> 100 µM (inactive)	–	–	> 100 µM (inactive)	–	> 100 µM (inactive)	> 100 µM (inactive)	> 100 µM (inactive)	> 100 µM (inactive)	> 100 µM (inactive)
O=C1CCCCC[C@]12SC[C@H]1CON=C12	27.8 µM (inactive)	> 100 µM (inactive)	21.9 µM (inactive)	94.8 µM (inactive)	38.3 µM (inactive)	–	35.2 µM (inactive)	31.3	73.8 µM (inactive)	89.7 µM (inactive)	23.1 µM (inactive)	37.4 µM (inactive)	31 µM (inactive)	14.5 µM (inactive)	41.3 µM (inactive)	22.2 µM (inactive)	> 100 µM (inactive)	7.16 µM (inactive)	65.8 µM (inactive)	27.2 µM (inactive)
CC(C)CCC(=O)c1ccoc1 [PERILLAKETONE]	> 100 µM (inactive)	> 100 µM (inactive)	> 100 µM (inactive)	> 100 µM (inactive)	> 100 µM (inactive)	> 100 µM (inactive)	> 100 µM (inactive)	> 100	> 100 µM (inactive)	> 100 µM (inactive)	> 100 µM (inactive)	> 100 µM (inactive)	> 100 µM (inactive)	> 100 µM (inactive)	> 100 µM (inactive)	> 100 µM (inactive)	> 100 µM (inactive)	–	> 100 µM (inactive)	> 100 µM (inactive)
C#CCSc1cnc2ccccc2c1Sc1c[nH]c2ccccc2c1=O	13.6 µM (inactive)	16.1 µM (inactive)	6.82 µM (inactive)	15.4 µM (inactive)	21.2 µM (inactive)	17.6 µM (inactive)	13.3 µM (inactive)	16.1	20.9 µM (inactive)	23.4 µM (inactive)	12.8 µM (inactive)	30.3 µM (inactive)	19.1 µM (inactive)	17.1 µM (inactive)	28.6 µM (inactive)	23.7 µM (inactive)	32.7 µM (inactive)	–	24.7 µM (inactive)	4.2 µM (inactive)
COc1cccc(-c2cc(=O)c3ccccc3o2)c1N	> 100 µM (inactive)	51.9 µM (inactive)	> 100 µM (inactive)	72.9 µM (inactive)	12.8 µM (inactive)	> 23.6 µM (inactive)	52 µM (inactive)	> 100	84.3 µM (inactive)	> 100 µM (inactive)	> 100 µM (inactive)	15 µM (inactive)	16.2 µM (inactive)	5.27 µM (inactive)	63.5 µM (inactive)	> 100 µM (inactive)	> 91 µM (inactive)	–	53 µM (inactive)	> 76.6 µM (inactive)
CC(NCCS(=O)(=O)O)C(=O)O (stereo not drawn)	–	> 100 µM (inactive)	> 100 µM (inactive)	> 100 µM (inactive)	> 100 µM (inactive)	–	> 100 µM (inactive)	> 100	> 100 µM (inactive)	> 45.6 µM (inactive)	> 100 µM (inactive)	> 100 µM (inactive)	> 100 µM (inactive)	> 100 µM (inactive)	> 100 µM (inactive)	> 100 µM (inactive)	> 100 µM (inactive)	> 77.3 µM (inactive)	> 100 µM (inactive)	> 100 µM (inactive)
O=c1ccn2n1CCCCC2	> 100 µM (inactive)	> 100 µM (inactive)	–	> 100 µM (inactive)	> 100 µM (inactive)	> 100 µM (inactive)	> 100 µM (inactive)	> 100	> 100 µM (inactive)	> 100 µM (inactive)	> 100 µM (inactive)	> 100 µM (inactive)	> 100 µM (inactive)	> 100 µM (inactive)	> 100 µM (inactive)	> 100 µM (inactive)	> 100 µM (inactive)	> 100 µM (inactive)	> 100 µM (inactive)	> 100 µM (inactive)
CC1[C@@H](OCc2ccccc2)COC(=O)N1Cc1ccccc1 (stereo partly drawn)	> 100 µM (inactive)	> 100 µM (inactive)	81.8 µM (inactive)	52.1 µM (inactive)	> 100 µM (inactive)	93.8 µM (inactive)	> 100 µM (inactive)	> 100	78 µM (inactive)	> 100 µM (inactive)	> 100 µM (inactive)	> 100 µM (inactive)	78.9 µM (inactive)	> 100 µM (inactive)	–	–	> 100 µM (inactive)	–	> 100 µM (inactive)	52.2 µM (inactive)
CCOC(=O)CNC1C(NC(C)=O)C(OC)OC2COC(c3ccccc3)OC21 (stereo not drawn)	> 100 µM (inactive)	> 100 µM (inactive)	–	> 100 µM (inactive)	> 100 µM (inactive)	–	> 100 µM (inactive)	> 100	> 100 µM (inactive)	> 100 µM (inactive)	> 100 µM (inactive)	> 100 µM (inactive)	> 100 µM (inactive)	> 100 µM (inactive)	> 100 µM (inactive)	> 100 µM (inactive)	> 100 µM (inactive)	> 100 µM (inactive)	> 100 µM (inactive)	> 100 µM (inactive)
NCCS(=O)(=O)O [TAURINE]	> 100 µM (inactive)	> 100 µM (inactive)	> 100 µM (inactive)	> 100 µM (inactive)	> 100 µM (inactive)	> 100 µM (inactive)	> 100 µM (inactive)	> 100	–	> 100 µM (inactive)	> 100 µM (inactive)	–	> 100 µM (inactive)	–	> 100 µM (inactive)	> 100 µM (inactive)	> 100 µM (inactive)	–	> 100 µM (inactive)	> 100 µM (inactive)
O=[N+]([O-])c1ccc2nc(Nc3ccccc3)c(Nc3ccccc3)nc2c1	0.681 µM (active)	1.15 µM (inactive)	–	1.17 µM (inactive)	0.463 µM (active)	0.847 µM (active)	0.555 µM (active)	0.753	2.87 µM (inactive)	–	1.18 µM (inactive)	0.787 µM (active)	1.82 µM (inactive)	1.02 µM (active)	1.58 µM (inactive)	0.802 µM (active)	2.64 µM (inactive)	0.929 µM (active)	1.03 µM (active)	2.61 µM (inactive)
O=C(NCCO)c1ccc(Cl)cc1	> 100 µM (inactive)	> 100 µM (inactive)	–	> 100 µM (inactive)	> 100 µM (inactive)	> 100 µM (inactive)	> 100 µM (inactive)	> 100	> 100 µM (inactive)	> 100 µM (inactive)	> 100 µM (inactive)	–	> 100 µM (inactive)	> 100 µM (inactive)	–	> 100 µM (inactive)	> 100 µM (inactive)	> 100 µM (inactive)	> 100 µM (inactive)	–
CC(C)(C)C1=NC(=S)SC2=NC(=O)C3(NN21)c1ccccc1-c1ccccc13	6.14 µM (inactive)	> 10 µM (inactive)	4.43 µM (inactive)	> 10 µM (inactive)	> 10 µM (inactive)	7.21 µM (inactive)	–	9.27	7.98 µM (inactive)	–	> 10 µM (inactive)	> 10 µM (inactive)	2.67 µM (inactive)	> 10 µM (inactive)	–	> 10 µM (inactive)	–	–	> 10 µM (inactive)	5.08 µM (inactive)

Reference: ChEMBL document CHEMBL1201862, “PubChem BioAssay data set” (2004)
